Test results reported in PMC10885153, “Membrane Permeability in a Large Macrocyclic Peptide Driven by a Saddle-Shaped Conformation” (Journal of the American Chemical Society, 2024).
Each block holds one compound with its values, some of them ahead of it. Positions of bridges follow the written chain, without caps; N, C: chain ends. Non-standard residues stand in square brackets, D forms with d. Residues, ends and D or L forms follow the SMILES beside them. Cha = N[C@@H](CC1CCCCC1)C(=O)O; NMeNva = CCC[C@H](NC)C(=O)O; NMeAbu = CC[C@H](NC)C(=O)O; NMeC = CN[C@@H](CS)C(=O)O; NMeA = CN[C@@H](C)C(=O)O; dAbu = CC[C@@H](N)C(=O)O; dNMeA = CN[C@H](C)C(=O)O; Nva = CCC[C@H](N)C(=O)O; Abu = CC[C@H](N)C(=O)O; Nleu = CC(C)CNCC(=O)O; NPrGly = CCCNCC(=O)O; NEtG = CCNCC(=O)O

Legend:
in vitro [1] = settings: PAMPA
in vitro [2] = settings: dog, pH 7.4
[3] = PAMPA, compounds measured in multiplex as mixtures (primary protocol); settings: for Papp at 10 µM: PAMPA, pH 7.4, PAMPA Papp; for Papp at 10 µM / PAMPA Papp: internal standard, 10 µM; for PAMPA Pe_avg: Stereoscan Library A (Scaffold A), average
Experimental: (§1) Passive permeabilities of the 36 compounds were measured in multiplex as mixtures of six compounds each using the parallel artificial membrane permeability assay (PAMPA).[44]−[46]
(§2) Protocol is identical for both mixture and pure compound analysis.
(§3) Two of the following: Carbamazepine (CBZ), propranolol (Prop), and 1NMe35 were
(§4) included as internal standards and prepared as DMSO stocks at a concentration of 2 000 µM.
(§5) assay was carried out with a 96-well donor plate with 0.45 μ hydrophobic Immobilon-P membrane supports
(§6) (Millipore MAIPNTR10) and a 96-well Teflon acceptor plate (Millipore MSSACCEPTOR).
protocol then proceeded as follows:
(§7) Donor well solutions were prepared to a volume of 1 000 µL with the analytes as a solution in 1X
(§8) PBS pH 7.4 and 5% DMSO. To a 3 mL Eppendorf tube was added 950 µL of 1X PBS pH 7.4, 40
(§9) The solutions were vortexed and set aside.
Analyte – 10 µM per compound
(§10) A 1% solution of soy lecithin in dodecane was freshly prepared in a 3 mL Eppendorf tube and
(§11) sonicated (5 min) to ensure full dissolution of the lecithin. The donor membrane plate was turned
(§12) upside down and bottom of the membranes exposed. 5 µL of the 1% soy lecithin solution in
(§13) dodecane was then placed on the bottom of the membrane, allowing the drop to spread across the
(§14) full area of the membrane. Any membranes with visible damage were not used in the assay.
(§15) membranes were allowed to equilibrate for 5 min before loading.
(§16) Each well within the Teflon block acceptor plate that was to be used in the assay was then loaded
(§17) with 300 µL of 1X PBS pH 7.4 and 5% DMSO.
(§18) Working without break, 150 µL of each donor well solution was transferred from the to the 96-well
(§19) donor plate. Each mixture of interest was r un in quadruplicate, using a new well for each replicate.
(§20) As soon as the 96-well donor plate was finished being loaded, it was gently placed into the 96-well
(§21) Teflon acceptor plate, taking care not to trap any air bubbles beneath the membrane.
(§22) The donor/acceptor plates were covered gently with the lid to minimize evaporation and transferred
(§23) gently as a system to a sealed chamber and left to sit overnight at room temperature. The chamber
(§24) was kept from drying by placing a wet paper towel within to prevent evaporation.
(§25) After ~19-20 hours the donor plate was removed from the acceptor plate.
(§26) 50 µL of each well (donor and acceptor) were transferred to a 96 -well plate and diluted with 50 µL
(§27) of methanol prior to heat sealing and quantification by UPLC -MS.

[4] = PAMPA, 10 µM, pH 7.4
Experimental: as §1, §2, §3, §4, §5, §6
protocol then proceeded as follows:
as §7, §8, §9
Analyte – 10 µM per compound
as §10, §11, §12, §13, §14, §15, §16, §17, §18, §19, §20, §21, §22, §23, §24, §25, §26, §27

in vitro [5] = settings: PAMPA; remark: listed apart in the source
Experimental: as §1, §2, §3, §4, §5, §6
protocol then proceeded as follows:
as §7, §8, §9
Analyte – 10 µM per compound
as §10, §11, §12, §13, §14, §15, §16, §17, §18, §19, §20, §21, §22, §23, §24, §25, §26, §27

Papp at 10 µM (in vitro [1]; pH 7.4, PAMPA Papp): 10.1 ×10⁻⁶ cm/s | Papp at 10 µM (in vitro [1]; pH 7.4, Papp): ~10 ×10⁻⁶ cm/s | Papp at 3 h, 10 µM (in vitro [2]; MDCK): 1.3 ×10⁻⁶ cm/s | Papp A→B at 3 h, 10 µM (in vitro [2]): 1.27 ×10⁻⁶ cm/s
SMILES: CCOC(=O)[C@@H]1CSCC(=O)N[C@H](CC)C(=O)N(CC(C)C)CC(=O)N[C@@H](CC(C)C)C(=O)N(C)[C@H](C)C(=O)N(C)[C@@H](C)C(=O)N[C@H](CC(C)C)C(=O)N(C)[C@H](C)C(=O)N[C@@H](CC(C)C)C(=O)N1C [B1, O=C([C@@H](NC([C@H](N(C([C@H](NC([C@@H](N(C([C@H](N(C)C([C@@H](NC(CN1CC(C)C)=O)CC(C)C)=O)C)=O)C)C)=O)CC(C)C)=O)C)C)=O)CC(C)C)N([C@@H](CSCC(N[C@H](CC)C1=O)=O)C(OCC)=O)C] ({CH2CO}-[dAbu][Nleu]L[dNMeA][NMeA][dL][dNMeA]L[NMeC]-OEt; thioether N-9)

Papp at 10 µM ([3]; Lipo expt. group A1): 5.9 ± 0.3 ×10⁻⁶ cm/s | Papp at 10 µM ([3]; Lipo expt. group A2): 6 ± 0.4 ×10⁻⁶ cm/s | Papp at 10 µM ([3]; Lipo expt. group B1): 5.8 ± 0.4 ×10⁻⁶ cm/s | Papp at 10 µM ([3]; Lipo expt. group B2): 6.3 ± 0.2 ×10⁻⁶ cm/s | Papp at 10 µM ([3]; Lipo expt. group C1): 6.8 ± 0.1 ×10⁻⁶ cm/s | Papp at 10 µM ([3]; Lipo expt. group C2): 6 ± 0.1 ×10⁻⁶ cm/s | Papp at 10 µM ([3]; StereoA expt. group A2D): 4.4 ± 0.1 ×10⁻⁶ cm/s | Papp at 10 µM ([3]; StereoA expt. group A2L): 4.4 ± 0.1 ×10⁻⁶ cm/s | Papp at 10 µM ([3]; StereoA expt. group ADD): 4.2 ± 0.1 ×10⁻⁶ cm/s | Papp at 10 µM ([3]; StereoA expt. group ADL): 4.3 ± 0.2 ×10⁻⁶ cm/s | Papp at 10 µM ([3]; StereoA expt. group ALD): 4.3 ± 0.1 ×10⁻⁶ cm/s | Papp at 10 µM ([3]; StereoA expt. group ALL): 5.1 ± 0.3 ×10⁻⁶ cm/s | Papp at 10 µM ([3]; StereoB expt. group B2D): 6.3 ± 1.7 ×10⁻⁶ cm/s | Papp at 10 µM ([3]; StereoB expt. group B2L): 5.6 ± 0.2 ×10⁻⁶ cm/s | Papp at 10 µM ([3]; StereoB expt. group BDD): 5.5 ± 0.1 ×10⁻⁶ cm/s | Papp at 10 µM ([3]; StereoB expt. group BDL): 5.8 ± 0.1 ×10⁻⁶ cm/s | Papp at 10 µM ([3]; StereoB expt. group BLD): 5.5 ± 0.1 ×10⁻⁶ cm/s | Papp at 10 µM ([3]; StereoB expt. group BLL): 5.8 ± 0.2 ×10⁻⁶ cm/s
SMILES: NC(=O)N1c2ccccc2C=Cc2ccccc21 [Carbamazepine]

SMILES: CCOC(=O)[C@@H]1CSCC(=O)N[C@H](CC)C(=O)N(C)[C@@H](C)C(=O)N[C@H](CC(C)C)C(=O)N(C)[C@H](C)C(=O)N(CC)CC(=O)N[C@@H](CC(C)C)C(=O)N(C)[C@@H](C)C(=O)N[C@@H](CC(C)C)C(=O)N1C [JF206_A2D_DDLL_Ethyl] ({CH2CO}-[dAbu][NMeA][dL][dNMeA][NEtG]L[NMeA]L[NMeC]-OEt; thioether N-9)
PAMPA Pe_avg [3]: 0 cm/s

SMILES: CCOC(=O)[C@@H]1CSCC(=O)N[C@H](CC)C(=O)N(C)[C@@H](C)C(=O)N[C@H](CC(C)C)C(=O)N(C)[C@H](C)C(=O)N(CC(C)C)CC(=O)N[C@@H](CC(C)C)C(=O)N(C)[C@@H](C)C(=O)N[C@@H](CC(C)C)C(=O)N1C [JF206_A2D_DDLL_Isobutyl] ({CH2CO}-[dAbu][NMeA][dL][dNMeA][Nleu]L[NMeA]L[NMeC]-OEt; thioether N-9)
PAMPA Pe_avg [3]: 0 cm/s

%R_avg [4]: 4.8% | log(Pe)_avg [4]: -6.100 | Papp at 10 µM (in vitro [5]; pH 7.4, Pe_avg): 0.794 ×10⁻⁶ cm/s
SMILES: CCCN1CC(=O)N[C@@H](CC(C)C)C(=O)N(C)[C@@H](C)C(=O)N[C@@H](CC(C)C)C(=O)N(C)[C@H](C(=O)OCC)CSCC(=O)N[C@@H](CC(C)C)C(=O)N(C)[C@@H](C)C(=O)N[C@@H](CC(C)C)C(=O)N2CCC[C@@H]2C1=O [LA08, O=C(N(C)[C@H](C(OCC)=O)CSCC(N[C@H](C(N(C)[C@@H](C)C(N[C@@H](CC(C)C)C(N1[C@H](CCC1)C(N(CCC)CC(N[C@H]2CC(C)C)=O)=O)=O)=O)=O)CC(C)C)=O)[C@H](CC(C)C)NC([C@H](C)N(C)C2=O)=O] ({CH2CO}-L[NMeA]L[dP][NPrGly]L[NMeA]L[NMeC]-OEt; thioether N-9)

%R_avg [4]: 50.3% | Papp at 10 µM (in vitro [5]; pH 7.4, Pe_avg): 2.57 ×10⁻⁶ cm/s
SMILES: CCC[C@@H]1NC(=O)CN(CC)C(=O)[C@H](CC(C)C)NC(=O)CSC[C@@H](C(=O)OCC)N(C)C(=O)[C@H](CC(C)C)NC(=O)[C@H](C)N(C)C(=O)[C@H](CC(C)C)NC(=O)[C@H](C)N(C)C(=O)[C@H]2CCCN2C1=O [LB05, O=C(N(C)[C@H](C(OCC)=O)CSCC(N[C@H](C1=O)CC(C)C)=O)[C@H](CC(C)C)NC([C@H](C)N(C)C([C@H](CC(C)C)NC([C@H](C)N(C)C([C@@H]2N(C([C@H](CCC)NC(CN1CC)=O)=O)CCC2)=O)=O)=O)=O] ({CH2CO}-L[NEtG][Nva][dP][NMeA]L[NMeA]L[NMeC]-OEt; thioether N-9)

%R_avg [4]: 13.3% | Papp at 10 µM (in vitro [5]; pH 7.4, Pe_avg): 2.29 ×10⁻⁶ cm/s
SMILES: CCCN1CC(=O)N[C@@H](CC(C)C)C(=O)N2CCC[C@@H]2C(=O)N(C)[C@@H](C)C(=O)N[C@@H](CC(C)C)C(=O)N(C)[C@@H](C)C(=O)N[C@@H](CC(C)C)C(=O)N(C)[C@H](C(=O)OCC)CSCC(=O)N[C@@H](CC(C)C)C1=O [LB08, O=C(N(C)[C@H](C(OCC)=O)CSCC(N[C@H](C1=O)CC(C)C)=O)[C@H](CC(C)C)NC([C@H](C)N(C)C([C@H](CC(C)C)NC([C@H](C)N(C)C([C@@H]2N(C([C@H](CC(C)C)NC(CN1CCC)=O)=O)CCC2)=O)=O)=O)=O] ({CH2CO}-L[NPrGly]L[dP][NMeA]L[NMeA]L[NMeC]-OEt; thioether N-9)

%R_avg [4]: 6.2% | Papp at 10 µM (in vitro [5]; pH 7.4, Pe_avg): 0.619 ×10⁻⁶ cm/s | Papp at 10 µM (in vitro [5]; pH 7.4, log(Pe)_avg): 0.551 ×10⁻⁶ cm/s
SMILES: CCC[C@@H]1NC(=O)CN(CCC)C(=O)[C@H](CC(C)C)NC(=O)CSC[C@@H](C(=O)OCC)N(C)C(=O)[C@H](CC(C)C)NC(=O)[C@H](C)N(C)C(=O)[C@H](CC2CCCCC2)NC(=O)[C@H](C)N(C)C(=O)[C@H]2CCCN2C1=O [LB11, O=C(N(C)[C@H](C(OCC)=O)CSCC(N[C@H](C1=O)CC(C)C)=O)[C@H](CC(C)C)NC([C@H](C)N(C)C([C@H](CC2CCCCC2)NC([C@H](C)N(C)C([C@@H]3N(C([C@H](CCC)NC(CN1CCC)=O)=O)CCC3)=O)=O)=O)=O] ({CH2CO}-L[NPrGly][Nva][dP][NMeA][Cha][NMeA]L[NMeC]-OEt; thioether N-9)

%R_avg [4]: 6.0% | Papp at 10 µM (in vitro [5]; pH 7.4, Pe_avg): 0.072 ×10⁻⁶ cm/s | Papp at 10 µM (in vitro [5]; pH 7.4, log(Pe)_avg): 0.0593 ×10⁻⁶ cm/s
SMILES: CCCN1CC(=O)N[C@@H](CC(C)C)C(=O)N2CCC[C@@H]2C(=O)N(C)[C@@H](C)C(=O)N[C@@H](CC2CCCCC2)C(=O)N(C)[C@@H](C)C(=O)N[C@@H](CC(C)C)C(=O)N(C)[C@H](C(=O)OCC)CSCC(=O)N[C@@H](CC(C)C)C1=O [LB12, O=C(N(C)[C@H](C(OCC)=O)CSCC(N[C@H](C1=O)CC(C)C)=O)[C@H](CC(C)C)NC([C@H](C)N(C)C([C@H](CC2CCCCC2)NC([C@H](C)N(C)C([C@@H]3N(C([C@H](CC(C)C)NC(CN1CCC)=O)=O)CCC3)=O)=O)=O)=O] ({CH2CO}-L[NPrGly]L[dP][NMeA][Cha][NMeA]L[NMeC]-OEt; thioether N-9)

%R_avg [4]: 19.3% | Papp A→B at 3 h, 10 µM (in vitro [2]; MDCK): 7.4 ×10⁻⁶ cm/s | Papp at 3 h, 10 µM (in vitro [2]; MDCK): 7.4 ×10⁻⁶ cm/s | Papp at 10 µM (in vitro [5]; pH 7.4, Permeability (Papp) PAMPA (mixture)): 5 ×10⁻⁶ cm/s
SMILES: CCOC(=O)[C@@H]1CSCC(=O)N[C@@H](CC(C)C)C(=O)N(C)[C@@H](C)C(=O)N[C@@H](CC(C)C)C(=O)N2CCC[C@@H]2C(=O)N(C)[C@@H](CC)C(=O)N[C@@H](CC)C(=O)N(C)[C@@H](C)C(=O)N[C@@H](CC(C)C)C(=O)N1C [LC02, O=C(N(C)[C@H](C(OCC)=O)CSCC(N[C@H](C(N(C)[C@@H](C)C(N[C@@H](CC(C)C)C(N1[C@H](CCC1)C(N(C)[C@@H](CC)C(N[C@H]2CC)=O)=O)=O)=O)=O)CC(C)C)=O)[C@H](CC(C)C)NC([C@H](C)N(C)C2=O)=O] ({CH2CO}-L[NMeA]L[dP][NMeAbu][Abu][NMeA]L[NMeC]-OEt; thioether N-9)

%R_avg [4]: 7.4%
SMILES: CCC[C@@H]1NC(=O)[C@H](C)N(C)C(=O)[C@H](CC(C)C)NC(=O)CSC[C@@H](C(=O)OCC)N(C)C(=O)[C@H](CC(C)C)NC(=O)[C@H](C)N(C)C(=O)[C@H](CC2CCCCC2)NC(=O)[C@H](CCC)N(C)C(=O)[C@H]2CCCN2C1=O [LC11, O=C(N(C)[C@H](C(OCC)=O)CSCC(N[C@H](C(N(C)[C@@H](C)C(N[C@@H](CCC)C(N1[C@H](CCC1)C(N(C)[C@@H](CCC)C(N[C@H]2CC3CCCCC3)=O)=O)=O)=O)=O)CC(C)C)=O)[C@H](CC(C)C)NC([C@H](C)N(C)C2=O)=O] ({CH2CO}-L[NMeA][Nva][dP][NMeNva][Cha][NMeA]L[NMeC]-OEt; thioether N-9)

%R_avg [4]: 12.7% | Pe_avg [4]: 0 cm/s
SMILES: CCC[C@H]1C(=O)N[C@@H](CC2CCCCC2)C(=O)N(C)[C@@H](C)C(=O)N[C@@H](CC(C)C)C(=O)N(C)[C@H](C(=O)OCC)CSCC(=O)N[C@@H](CC(C)C)C(=O)N(C)[C@@H](C)C(=O)N[C@@H](CC(C)C)C(=O)N2CCC[C@@H]2C(=O)N1C [LC12, O=C(N(C)[C@H](C(OCC)=O)CSCC(N[C@H](C(N(C)[C@@H](C)C(N[C@@H](CC(C)C)C(N1[C@H](CCC1)C(N(C)[C@@H](CCC)C(N[C@H]2CC3CCCCC3)=O)=O)=O)=O)=O)CC(C)C)=O)[C@H](CC(C)C)NC([C@H](C)N(C)C2=O)=O] ({CH2CO}-L[NMeA]L[dP][NMeNva][Cha][NMeA]L[NMeC]-OEt; thioether N-9)

Papp at 10 µM ([3]; Lipo expt. group A1): 9.1 ± 0.4 ×10⁻⁶ cm/s | Papp at 10 µM ([3]; Lipo expt. group A2): 9.2 ± 0.9 ×10⁻⁶ cm/s | Papp at 10 µM ([3]; Lipo expt. group B2): 8.8 ± 0.2 ×10⁻⁶ cm/s | Papp at 10 µM ([3]; Lipo expt. group C1): 9.8 ± 0.2 ×10⁻⁶ cm/s | PAMPA Papp ([3]; Lipo expt. group B1): 7.7 ± 0.8 x10-6 cm/s | PAMPA Papp ([3]; Lipo expt. group C2): 9.4 ± 0.4 x10-6 cm/s
SMILES: CC(C)NCC(O)COc1cccc2ccccc12 (centres unmarked) [Propranolol]
